Results published in patent publication US20130142882A1, “METHODS AND COMPOSITIONS FOR TREATMENT, MODIFICATION AND MANAGEMENT OF BONE CANCER PAIN” (GOLDEN BIOTECHNOLOGY CORPORATION, priority 2011, published 2013).
Where “and” joins values, the source holds several entries; their conditions need not be identical. Equal values may be shown once.

Tested on: rat model of bone cancer pain (Walker 256 rat mammary gland carcinoma cells injected into the right tibia)
Assay: Mechanical allodynia (Von Frey test) in a rat model of bone cancer pain
Type: in vivo, Rat (Sprague-Dawley)
Protocol: The objective of this study was to assess the potential anti-nociceptive and anti-tumourigenic effects of Compound 1, at doses of 15, 30 and 45 mg/kg, in an animal model of bone cancer pain. Metastasis of cancer cells to the bone was modeled by injecting Walker 256 rat mammary gland carcinoma cells into the medullary cavity of the right tibia (Mao-Yinga, et al. A rat model of bone cancer pain induced by intra-tibia inoculation of Walker 256 mammary gland carcinoma cells. Biochem Biophys Res Commun 2006; 345: 1292-1298). The development of mechanical allodynia was monitored using an established behavioural test (Von Frey test). Treatment administration was chronic, from the day of surgery, and administered twice daily for 21 days to determine whether there was a prophylactic effect on the development of mechanical allodynia. Zoledronic acid was used as a reference substance. No regulatory test guidelines were applicable to this study.
Rats have been studied in this model of bone cancer pain. The route of administration of Compound 1 and vehicle was oral. The doses of Compound 1 were 15, 30 and 45 mg/kg, twice a day (approximately 10 h apart) for 21 days.
The dose of zoledronic acid was 30 μg/kg, as a single administration, every second day from the day of surgery, based on historical data. The route of administration of zoledronic acid was subcutaneous.
The dose volume for test substance and vehicle treatments was 5 mL/kg. The vehicle for Compound 1 was corn oil. Each rat allocated to test substance or vehicle treatments received an oral dose, by gavage, twice daily (approximately 8 am and 6 pm) for 21 consecutive days. The dose volume for the reference substance treatment was 1 mL/kg. Each rat allocated to reference substance treatment received a single subcutaneous dose, by injection (approximately 8 am) every second day from the day of surgery.
Cell preparation. Walker 256 rat mammary gland carcinoma cells (obtained from the American Type Culture Collection (ATCC)) were harvested from sub-confluent cultures growing in vitro and the number of viable cells determined. Cells were then re-suspended in sterile phosphate buffered saline (PBS) at a concentration of 4×10^5 cells. Female Sprague-Dawley rats were intratibially injected in the right leg with 4×10^5 Walker 256 rat mammary gland carcinoma cells in a volume of 6 μL as detailed in Surgical procedure below.
Baseline behavioural testing. The rats were moved to the procedure room 5 days prior to behavioural testing. The rats were then housed, dosed and observed in the procedure room. The behavioural test was performed on all rats on 2 separate occasions prior to surgery, to establish baseline values. Pre-surgery baseline values were taken as the data from the final (second) day of testing (the data from the first day of testing was not included but classed as part of the acclimatisation).
Mechanical allodynia (Von Frey test): Each animal was placed in a wire mesh cage and a series of Von Frey filaments were applied to the plantar surface of the hind paw, from below. The filaments were applied in ascending order (starting with the weakest force), and the withdrawal threshold for both the left and right hind paws were evaluated. Each filament was indented on the mid-plantar surface of the foot to the point where it just started to bend; this was repeated approximately 8 to 10 times per filament at a frequency of approximately 1 Hz. The withdrawal threshold was defined as the lowest force of two or more consecutive Von Frey filaments to elicit a reflex withdrawal response (i.e. a brief paw flick).
Surgical procedure. The animals were surgically prepared over 2 days. Each rat was anaesthetised as necessary with isofluorane in […]. The surface around the incision site was shaved and sterilised. Under aseptic conditions, an incision was made in the skin over the top of the right tibia to expose the tibia head with minimal damage. […]

[1] = 15 mg/kg p.o. twice daily, Day 6, left paw
[2] = 15 mg/kg p.o. twice daily, Day 6, right paw
[3] = 15 mg/kg p.o. twice daily, Day 12, left paw
[4] = 15 mg/kg p.o. twice daily, Day 12, right paw
[5] = 15 mg/kg p.o. twice daily, Day 14, left paw
[6] = 15 mg/kg p.o. twice daily, Day 14, right paw
[7] = 15 mg/kg p.o. twice daily, Day 19, left paw
[8] = 15 mg/kg p.o. twice daily, Day 19, right paw
[9] = 15 mg/kg p.o. twice daily, Day 21, left paw
[10] = 15 mg/kg p.o. twice daily, Day 21, right paw
[11] = 15 mg/kg p.o. twice daily, Pre-Surgery, left paw
[12] = 15 mg/kg p.o. twice daily, Pre-Surgery, right paw
[13] = 30 mg/kg p.o. twice daily, Day 6, left paw
[14] = 30 mg/kg p.o. twice daily, Day 6, right paw
[15] = 30 mg/kg p.o. twice daily, Day 12, left paw
[16] = 30 mg/kg p.o. twice daily, Day 12, right paw
[17] = 30 mg/kg p.o. twice daily, Day 14, left paw
[18] = 30 mg/kg p.o. twice daily, Day 14, right paw
[19] = 30 mg/kg p.o. twice daily, Day 19, left paw
[20] = 30 mg/kg p.o. twice daily, Day 19, right paw
[21] = 30 mg/kg p.o. twice daily, Day 21, left paw
[22] = 30 mg/kg p.o. twice daily, Day 21, right paw
[23] = 30 mg/kg p.o. twice daily, Pre-Surgery, left paw
[24] = 30 mg/kg p.o. twice daily, Pre-Surgery, right paw
[25] = 45 mg/kg p.o. twice daily, Day 6, left paw
[26] = 45 mg/kg p.o. twice daily, Day 6, right paw
[27] = 45 mg/kg p.o. twice daily, Day 12, left paw
[28] = 45 mg/kg p.o. twice daily, Day 12, right paw
[29] = 45 mg/kg p.o. twice daily, Day 14, left paw
[30] = 45 mg/kg p.o. twice daily, Day 14, right paw
[31] = 45 mg/kg p.o. twice daily, Day 19, left paw
[32] = 45 mg/kg p.o. twice daily, Day 19, right paw
[33] = 45 mg/kg p.o. twice daily, Day 21, left paw
[34] = 45 mg/kg p.o. twice daily, Day 21, right paw
[35] = 45 mg/kg p.o. twice daily, Pre-Surgery, left paw
[36] = 45 mg/kg p.o. twice daily, Pre-Surgery, right paw

Structure (SMILES): COC1=C(OC)C(O)C(C/C=C(\C)CC/C=C(\C)CCC=C(C)C)C(C)C1=O (stereo not drawn) [Compound 1, 4-hydroxy-2,3-dimethoxy-6-methyl-5-(3,7,11-trimethyldodeca-2,6,10-trienyl)cyclohex-2-enone]
- Withdrawal Threshold (Log 10 (force (g) × 10 000)) on Day Post-Operative [1]: 5.33 Log 10 (force (g) × 10 000)
- Withdrawal threshold (g) on day post-operative [1]: 21.65 g
- Withdrawal Threshold (Log 10 (force (g) × 10 000)) on Day Post-Operative [2]: 5.31 Log 10 (force (g) × 10 000)
- Withdrawal threshold (g) on day post-operative [2]: 20.81 g
- Withdrawal Threshold (Log 10 (force (g) × 10 000)) on Day Post-Operative [3]: 5.19 Log 10 (force (g) × 10 000)
- Withdrawal threshold (g) on day post-operative [3]: 16.27 g
- Withdrawal Threshold (Log 10 (force (g) × 10 000)) on Day Post-Operative [4]: 4.99 Log 10 (force (g) × 10 000)
- Withdrawal threshold (g) on day post-operative [4]: 11.12 g
- Withdrawal Threshold (Log 10 (force (g) × 10 000)) on Day Post-Operative [5]: 5.18 Log 10 (force (g) × 10 000)
- Withdrawal threshold (g) on day post-operative [5]: 16.61 g
- Withdrawal Threshold (Log 10 (force (g) × 10 000)) on Day Post-Operative [6]: 4.91 Log 10 (force (g) × 10 000)
- Withdrawal threshold (g) on day post-operative [6]: 9.97 g
- Withdrawal Threshold (Log 10 (force (g) × 10 000)) on Day Post-Operative [7]: 5.08 Log 10 (force (g) × 10 000)
- Withdrawal threshold (g) on day post-operative [7]: 13.83 g
- Withdrawal Threshold (Log 10 (force (g) × 10 000)) on Day Post-Operative [8]: 4.76 Log 10 (force (g) × 10 000)
- Withdrawal threshold (g) on day post-operative [8]: 8.36 g
- Withdrawal Threshold (Log 10 (force (g) × 10 000)) on Day Post-Operative [9]: 5.06 Log 10 (force (g) × 10 000)
- Withdrawal threshold (g) on day post-operative [9]: 13.74 ± 2.42 g and 13.74 g
- Withdrawal Threshold (Log 10 (force (g) × 10 000)) on Day Post-Operative [10]: 4.80 Log 10 (force (g) × 10 000)
- Withdrawal threshold (g) on day post-operative [10]: 7.82 ± 1.43 g and 7.82 g
- Withdrawal Threshold (Log 10 (force (g) × 10 000)) on Day Post-Operative [11]: 5.33 Log 10 (force (g) × 10 000)
- Withdrawal threshold (g) on day post-operative [11]: 21.79 g
- Withdrawal Threshold (Log 10 (force (g) × 10 000)) on Day Post-Operative [12]: 5.33 Log 10 (force (g) × 10 000)
- Withdrawal threshold (g) on day post-operative [12]: 21.79 g
- Withdrawal Threshold (Log 10 (force (g) × 10 000)) on Day Post-Operative [13]: 5.35 Log 10 (force (g) × 10 000)
- Withdrawal threshold (g) on day post-operative [13]: 22.55 g
- Withdrawal Threshold (Log 10 (force (g) × 10 000)) on Day Post-Operative [14]: 5.32 Log 10 (force (g) × 10 000)
- Withdrawal threshold (g) on day post-operative [14]: 21.02 g
- Withdrawal Threshold (Log 10 (force (g) × 10 000)) on Day Post-Operative [15]: 5.24 Log 10 (force (g) × 10 000)
- Withdrawal threshold (g) on day post-operative [15]: 18.34 g
- Withdrawal Threshold (Log 10 (force (g) × 10 000)) on Day Post-Operative [16]: 5.00 Log 10 (force (g) × 10 000)
- Withdrawal threshold (g) on day post-operative [16]: 11.15 g
- Withdrawal Threshold (Log 10 (force (g) × 10 000)) on Day Post-Operative [17]: 5.16 Log 10 (force (g) × 10 000)
- Withdrawal threshold (g) on day post-operative [17]: 15.71 g
- Withdrawal Threshold (Log 10 (force (g) × 10 000)) on Day Post-Operative [18]: 4.86 Log 10 (force (g) × 10 000)
- Withdrawal threshold (g) on day post-operative [18]: 8.55 g
- Withdrawal Threshold (Log 10 (force (g) × 10 000)) on Day Post-Operative [19]: 5.12 Log 10 (force (g) × 10 000)
- Withdrawal threshold (g) on day post-operative [19]: 14.04 g
- Withdrawal Threshold (Log 10 (force (g) × 10 000)) on Day Post-Operative [20]: 4.91 Log 10 (force (g) × 10 000)
- Withdrawal threshold (g) on day post-operative [20]: 9.07 g
- Withdrawal Threshold (Log 10 (force (g) × 10 000)) on Day Post-Operative [21]: 5.05 Log 10 (force (g) × 10 000)
- Withdrawal threshold (g) on day post-operative [21]: 11.40 ± 0.81 g and 11.40 g
- Withdrawal Threshold (Log 10 (force (g) × 10 000)) on Day Post-Operative [22]: 4.82 Log 10 (force (g) × 10 000)
- Withdrawal threshold (g) on day post-operative [22]: 8.15 ± 1.43 g and 8.15 g
- Withdrawal Threshold (Log 10 (force (g) × 10 000)) on Day Post-Operative [23]: 5.33 Log 10 (force (g) × 10 000)
- Withdrawal threshold (g) on day post-operative [23]: 21.79 g
- Withdrawal Threshold (Log 10 (force (g) × 10 000)) on Day Post-Operative [24]: 5.33 Log 10 (force (g) × 10 000)
- Withdrawal threshold (g) on day post-operative [24]: 21.79 g
- Withdrawal Threshold (Log 10 (force (g) × 10 000)) on Day Post-Operative [25]: 5.35 Log 10 (force (g) × 10 000)
- Withdrawal threshold (g) on day post-operative [25]: 22.55 g
- Withdrawal Threshold (Log 10 (force (g) × 10 000)) on Day Post-Operative [26]: 5.35 Log 10 (force (g) × 10 000)
- Withdrawal threshold (g) on day post-operative [26]: 22.55 g
- Withdrawal Threshold (Log 10 (force (g) × 10 000)) on Day Post-Operative [27]: 5.31 Log 10 (force (g) × 10 000)
- Withdrawal threshold (g) on day post-operative [27]: 20.81 g
- Withdrawal Threshold (Log 10 (force (g) × 10 000)) on Day Post-Operative [28]: 5.16 Log 10 (force (g) × 10 000)
- Withdrawal threshold (g) on day post-operative [28]: 15.98 g
- Withdrawal Threshold (Log 10 (force (g) × 10 000)) on Day Post-Operative [29]: 5.35 Log 10 (force (g) × 10 000)
- Withdrawal threshold (g) on day post-operative [29]: 22.48 g
- Withdrawal Threshold (Log 10 (force (g) × 10 000)) on Day Post-Operative [30]: 5.30 Log 10 (force (g) × 10 000)
- Withdrawal threshold (g) on day post-operative [30]: 20.41 g
- Withdrawal Threshold (Log 10 (force (g) × 10 000)) on Day Post-Operative [31]: 5.29 Log 10 (force (g) × 10 000)
- Withdrawal threshold (g) on day post-operative [31]: 20.12 g
- Withdrawal Threshold (Log 10 (force (g) × 10 000)) on Day Post-Operative [32]: 5.24 Log 10 (force (g) × 10 000)
- Withdrawal threshold (g) on day post-operative [32]: 18.58 g
- Withdrawal Threshold (Log 10 (force (g) × 10 000)) on Day Post-Operative [33]: 5.29 Log 10 (force (g) × 10 000)
- Withdrawal threshold (g) on day post-operative [33]: 20.12 ± 1.67 g and 20.12 g
- Withdrawal Threshold (Log 10 (force (g) × 10 000)) on Day Post-Operative [34]: 5.25 Log 10 (force (g) × 10 000)
- Withdrawal threshold (g) on day post-operative [34]: 19.06 ± 2.17 g and 19.06 g
- Withdrawal Threshold (Log 10 (force (g) × 10 000)) on Day Post-Operative [35]: 5.33 Log 10 (force (g) × 10 000)
- Withdrawal threshold (g) on day post-operative [35]: 21.79 g
- Withdrawal Threshold (Log 10 (force (g) × 10 000)) on Day Post-Operative [36]: 5.33 Log 10 (force (g) × 10 000)
- Withdrawal threshold (g) on day post-operative [36]: 21.79 g
